System: carcinoma cells
Test: Uptake and retention of mitochondrial marking agents in living carcinoma cells
Assay type: cell-based
Details: 5 minutes incubation at 37° C., rinsed twice with 1% acetic acid, 2-butanol extraction, spectrophotometry
Procedure: Different concentrations of the various cationic marking agents, at 100, 50, 10 and 1 μg/ml are prepared in RPMI medium complete with 20% fetal calf serum, 1 mM glutamine, hydrocortisone, insulin, transferrin, estradiol, selenium and growth hormone.
The carcinoma cells are incubated at 37° C. in tissue culture incubators with 5% CO2 and 95% relative humidity, for 5 minutes with each agent and concentration there and then rinsed twice using 2 minute incubations with 1% acetic acid. After incubation and rinsing, the cells are harvested, at 30 min., 1 hour, 2 hours, 4 hours and 8 hours. The cells are then extracted with 2-butanol and analyzed by spectrophotometry for quantitation of the marking agent.
The saturation concentration for toluidine blue O occurs at concentrations of 10 μg/ml and above. The saturation concentrations for the other marking agents are similarly determined. The remaining experiments are conducted with a concentration of 10 μg/ml for toluidine blue O and at the saturation concentrations for the other marking agents so-determined, unless stated otherwise.

Q: Which saturation concentration does the source give for `Cc1cc2nc3ccc(N(C)C)cc3[s+]c2cc1N.[Cl-]` [toluidine blue O] here?
A: ≥ 10 µg/mL

— patent publication US6649144B1, “Method for detecting and killing epithelial cancer cells” (Zila, Inc., priority 2001, dated 2003)
